Source: patent publication US6737383B1, “Herbicidal oxadiazolidines” (priority 1999, dated 2004)

Columns and labels:
[1] = system: surinam grass; assay: Test B pre/postemergence surinam grass; format: in vivo, Brachiaria decumbens
How it was run: (§1)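 Test chemicals in a non-phytotoxic solvent mixture with surfactant were sprayed preemergence onto planted seeds and postemergence onto plants 2 to 18 cm tall (1- to 4-leaf stage). After twelve to sixteen days in a greenhouse, injury was visually rated against untreated controls from 0 (no effect) to 10 (complete control).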

[2] = system: soybean; assay: Test B pre/postemergence soybean; format: in vivo, Glycine max
How it was run: as §1

[3] = system: smallflower flatsedge; assay: Test B flood test smallflower flatsedge; format: in vivo, Cyperus difformis
How it was run: (§2)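 Plants were grown to the 2-leaf stage before treatment with test chemical, then held in a greenhouse for twelve to sixteen days. Injury was visually rated against untreated controls on a 0–10 scale, where 0 is no effect and 10 is complete control.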

[4] = system: velvetleaf; assay: Test B pre/postemergence velvetleaf; format: in vivo, Abutilon theophrasti
How it was run: as §1

[5] = system: blackgrass; assay: Test B pre/postemergence blackgrass; format: in vivo, Alopecurus myosuroides
How it was run: as §1

[6] = system: morningglory; assay: Test B pre/postemergence morningglory; format: in vivo, Ipomoea hederacea
How it was run: as §1

[7] = system: crabgrass; assay: Test B pre/postemergence crabgrass; format: in vivo, Digitaria sanguinalis
How it was run: as §1

[8] = system: giant foxtail; assay: Test B pre/postemergence giant foxtail; format: in vivo, Setaria faberii
How it was run: as §1

[9] = system: rape; assay: Test B pre/postemergence rape; format: in vivo, Brassica napus
How it was run: as §1

[10] = system: wheat; assay: Test B pre/postemergence wheat; format: in vivo, Triticum aestivum
How it was run: as §1

[11] = system: purple nutsedge; assay: Test B pre/postemergence purple nutsedge; format: in vivo, Cyperus rotundus
How it was run: as §1

[12] = system: duck salad; assay: Test B flood test duck salad; format: in vivo, Heteranthera limosa
How it was run: as §2

[13] = system: wild oat; assay: Test B pre/postemergence wild oat; format: in vivo, Avena fatua
How it was run: as §1

[14] = system: corn; assay: Test B pre/postemergence corn; format: in vivo, Zea mays
How it was run: as §1

[15] = system: rice; assay: Test B flood test rice; format: in vivo, Oryza sativa
How it was run: as §2

[16] = Postemergence, Rate 125 g/ha, scale of 0 to 10 where 0 is no effect and 10 is complete control
[17] = Postemergence, Rate 250 g/ha, scale of 0 to 10, 0 is no effect, 10 is complete control
[18] = Postemergence, Rate 1000 g/ha, scale 0 to 10 (0 no effect, 10 complete control)
[19] = Preemergence, Rate 125 g/ha, scale of 0 to 10 where 0 is no effect and 10 is complete control
[20] = Preemergence, Rate 250 g/ha, scale 0 to 10 (0 no effect, 10 complete control)
[21] = Preemergence, Rate 500 g/ha, scale of 0 to 10 where 0 is no effect and 10 is complete control
[22] = Rate 500 g/ha, Postemergence, scale 0 to 10, 0 is no effect, 10 is complete control
[23] = Rate 1000 g/ha, Preemergence, scale 0 to 10 (0 no effect, 10 complete control)
[24] = Pre-emergence, Rate 1000 g/ha, scale 0 to 10 (0 no effect, 10 complete control)
[25] = Rate 125 g/ha, under heading Pre-emergence, flood test species, visual evaluation after twelve to sixteen days
[26] = Rate 250 g/ha, Pre-emergence (flood test species), scale 0 to 10, 0 is no effect, 10 is complete control
[27] = Rate 500 g/ha, Pre-emergence section of Table B, 0 to 10 scale (0 no effect, 10 complete control)

For COP(=O)(CCn1c(=O)on(C(=O)N(c2ccc(F)cc2)C(C)C)c1=O)OC [Compound 662], the “Plant response rating, B. signalgrass” value [1, 16] was 0, the “B. signalgrass plant response rating” value [1, 17] was 0 and the “B. signalgrass plant response rating” value [1, 18] was 2. For the same molecule, the “B. signalgrass plant response rating” value [1, 19] was 0, the “Plant response rating, B. signalgrass” value [1, 20] was 3 and the “Plant response rating, B. signalgrass” value [1, 21] was 7. For the same molecule, the “B. signalgrass plant response rating” value [1, 22] was 2, the “Plant response rating, B. signalgrass” value [1, 23] was 9 and the “Soybean plant response rating” value [2, 16] was 1. The “Soybean plant response rating” value [2, 19] was 0, the “Plant response rating, Soybean” value [2, 20] was 0 and the “Plant response rating, Soybean” value [2, 21] was 0. The “Soybean plant response rating” value [2, 22] was 2, the “Plant response rating, Soybean” value [2, 23] was 3 and the “S. Flatsedge plant response rating” value [3, 24] was 0. For the same molecule, the “S. Flatsedge plant response rating (0 to 10 scale, 0 is no effect, 10 is complete control)” value [3, 25] was 0, the “S. Flatsedge plant response rating” value [3, 26] was 0 and the “S. Flatsedge plant response rating” value [3, 27] was 0. The “Velvetleaf plant response rating” value [4, 16] was 0, the “Velvetleaf plant response rating” value [4, 18] was 0 and the “Velvetleaf plant response rating” value [4, 19] was 0. For the same molecule, the “Plant response rating, Velvetleaf” value [4, 20] was 0, the “Plant response rating, Velvetleaf” value [4, 21] was 2 and the “Velvetleaf plant response rating” value [4, 22] was 0. The “Plant response rating, Velvetleaf” value [4, 23] was 2, the “Blackgrass plant response rating” value [5, 16] was 0 and the “Blackgrass plant response rating” value [5, 17] was 0. The “Blackgrass plant response rating” value [5, 18] was 6, the “Blackgrass plant response rating” value [5, 19] was 3 and the “Plant response rating, Blackgrass” value [5, 20] was 4. The “Plant response rating, Blackgrass” value [5, 21] was 9, the “Blackgrass plant response rating” value [5, 22] was 3 and the “Plant response rating, Blackgrass” value [5, 23] was 9. The “Morningglory plant response rating” value [6, 16] was 7, the “Morningglory plant response rating” value [6, 17] was 9 and the “Morningglory plant response rating” value [6, 18] was 7. For the same molecule, the “Morningglory plant response rating” value [6, 19] was 0, the “Plant response rating, Morningglory” value [6, 20] was 0 and the “Plant response rating, Morningglory” value [6, 21] was 1. The “Morningglory plant response rating” value [6, 22] was 7, the “Plant response rating, Morningglory” value [6, 23] was 3 and the “Crabgrass plant response rating” value [7, 16] was 0. The “Crabgrass plant response rating” value [7, 17] was 0, the “Crabgrass plant response rating” value [7, 18] was 8 and the “Crabgrass plant response rating” value [7, 19] was 0. For the same molecule, the “Plant response rating, Crabgrass” value [7, 20] was 4, the “Plant response rating, Crabgrass” value [7, 21] was 6 and the “Crabgrass plant response rating” value [7, 22] was 2. The “Plant response rating, Crabgrass” value [7, 23] was 9, the “Giant foxtail plant response rating” value [8, 16] was 0 and the “Giant foxtail plant response rating” value [8, 17] was 2. For the same molecule, the “Giant foxtail plant response rating” value [8, 18] was 8, the “Giant foxtail plant response rating” value [8, 19] was 7 and the “Plant response rating, Giant foxtail” value [8, 20] was 9. For the same molecule, the “Plant response rating, Giant foxtail” value [8, 21] was 10, the “Giant foxtail plant response rating” value [8, 22] was 5 and the “Plant response rating, Giant foxtail” value [8, 23] was 10. The “Rape plant response rating” value [9, 16] was 0, the “Rape plant response rating” value [9, 18] was 0 and the “Rape plant response rating” value [9, 19] was 0. For the same molecule, the “Plant response rating, Rape” value [9, 20] was 0, the “Plant response rating, Rape” value [9, 21] was 0 and the “Rape plant response rating” value [9, 22] was 0. The “Plant response rating, Rape” value [9, 23] was 4, the “Wheat plant response rating” value [10, 16] was 0 and the “Wheat plant response rating” value [10, 18] was 0. For the same molecule, the “Wheat plant response rating” value [10, 19] was 0, the “Plant response rating, Wheat” value [10, 20] was 0 and the “Plant response rating, Wheat” value [10, 21] was 0. The “Wheat plant response rating” value [10, 22] was 0, the “Plant response rating, Wheat” value [10, 23] was 5 and the “Nutsedge plant response rating” value [11, 16] was 0. For the same molecule, the “Nutsedge plant response rating” value [11, 19] was 0, the “Plant response rating, Nutsedge” value [11, 20] was 4 and the “Plant response rating, Nutsedge” value [11, 21] was 7. The “Nutsedge plant response rating” value [11, 22] was 5, the “Plant response rating, Nutsedge” value [11, 23] was 10 and the “Ducksalad plant response rating” value [12, 24] was 0. For the same molecule, the “Ducksalad plant response rating (0 to 10 scale, 0 is no effect, 10 is complete control)” value [12, 25] was 0, the “Ducksalad plant response rating” value [12, 26] was 0 and the “Ducksalad plant response rating” value [12, 27] was 0. The “Wild oats plant response rating” value [13, 16] was 1, the “Wild oats plant response rating” value [13, 18] was 1 and the “Wild oats plant response rating” value [13, 19] was 0. For the same molecule, the “Plant response rating, Wild oats” value [13, 20] was 0, the “Plant response rating, Wild oats” value [13, 21] was 9 and the “Wild oats plant response rating” value [13, 22] was 1. For the same molecule, the “Plant response rating, Wild oats” value [13, 23] was 9, the “Corn plant response rating” value [14, 16] was 0 and the “Corn plant response rating” value [14, 17] was 0. The “Corn plant response rating” value [14, 18] was 1, the “Corn plant response rating” value [14, 19] was 0 and the “Plant response rating, Corn” value [14, 20] was 0. For the same molecule, the “Plant response rating, Corn” value [14, 21] was 3, the “Corn plant response rating” value [14, 22] was 0 and the “Plant response rating, Corn” value [14, 23] was 5. The “Rice plant response rating” value [15, 24] was 0, the “Rice plant response rating (0 to 10 scale, 0 is no effect, 10 is complete control)” value [15, 25] was 0 and the “Rice plant response rating” value [15, 26] was 0. For the same molecule, the “Rice plant response rating” value [15, 27] was 0.
